One block for each molecule: values may come before it.
Legend:
[1] = tested on: acute experimental autoimmune encephalomyelitis (aEAE); test: Acute experimental autoimmune encephalomyelitis (aEAE) inhibition; type: in vivo, SJL/N female mice; conditions: for % aEAE Inhibition: percent inhibition of clinical scores compared to saline treated controls
foetuses = test: Teratogenic effects in the rat; type: in vivo; conditions: for % malformed fetuses: day 8 to 14 of pregnancy
[2] = tested on: Beagle Pain Syndrome (BPS); test: Beagle Pain Syndrome (BPS); type: in vivo; conditions: different breeds of beagle dogs
Protocol: The disease is reflected by clinical and laboratory manifestations justifying BPS as a model for the flu-like syndrome induced by roquinimex in man.
Beagle Pain Syndrome (BPS).
The compounds were administrated intravenously to beagle dogs. The dosage was given for five consecutive days. The dogs were evaluated for clinical and laboratory signs of the pain syndrome, e.g., fever, increased erythrocyte sedimentation rate (ESR), alkaline phosphate (AP), induction of acute phase proteins and vasculitis

Compound: COc1cccc2c1c(O)c(C(=O)N(C)c1ccc(C(F)(F)F)cc1)c(=O)n2C [Compound A, N-methyl-N-(4-trifluoromethyl-phenyl)-1,2-dihydro-4-hydroxy-5-methoxy-1-methyl-2-oxo-quinoline-3-carboxamide]
% aEAE Inhibition ([1]; Dose 0.2 mg/kg p.o.): 66%
% aEAE Inhibition ([1]; Dose 1 mg/kg p.o.): 86%
% aEAE Inhibition ([1]; Dose 5 mg/kg p.o.): 99%
% malformed fetuses (foetuses; Dose 6 mg/kg p.o.): 4%
% malformed fetuses (foetuses; Dose 30 mg/kg p.o.): 2%

Compound: CN(C(=O)c1c(O)c2c(Cl)cccc2n(C)c1=O)c1ccc(F)cc1F [Compound B, N-methyl-N-(2,4-difluorophenyl)-1,2-dihydro-4-hydroxy-5-chloro-1-methyl-2-oxo-quinoline-3-carboxamide]
% aEAE Inhibition ([1]; Dose 0.2 mg/kg p.o.): 59%
% aEAE Inhibition ([1]; Dose 1 mg/kg p.o.): 96%
% aEAE Inhibition ([1]; Dose 5 mg/kg p.o.): 100%
% malformed fetuses (foetuses; Dose 6 mg/kg p.o.): 0%

Compound: CN(C(=O)c1c(O)c2c(Cl)cccc2n(C)c1=O)c1ccccc1 [Compound C, N-Methyl-N-phenyl-1,2-dihydro-4-hydroxy-5-chloro-1-methyl-2-oxo-quinoline-3-carboxamide]
% aEAE Inhibition ([1]; Dose 0.2 mg/kg p.o.): 92%
% aEAE Inhibition ([1]; Dose 1 mg/kg p.o.): 100%
% malformed fetuses (foetuses; Dose 6 mg/kg p.o.): 37%

Beagle Pain Syndrome (BPS) [2]: induce the Beagle Pain Syndrome (BPS)
Compound: CN(C(=O)c1c(O)c2ccccc2n(C)c1=O)c1ccccc1 [Compound D, N-phenyl-N-methyl-1,2-dihydro-4-hydroxy-1-methyl-2-oxo-quinoline-3-carboxamide]
% aEAE Inhibition ([1]; Dose 0.2 mg/kg p.o.): 35%
% aEAE Inhibition ([1]; Dose 1 mg/kg p.o.): 40%
% aEAE Inhibition ([1]; Dose 5 mg/kg p.o.): 69%
inhibition of acute experimental autoimmune encephalomyelitis (aEAE) ([1]; at ≥5 mg/kg, treatment control): more than 50%
% malformed fetuses (foetuses; Dose 10 mg/kg p.o.): 9%
% malformed fetuses (foetuses; Dose 30 mg/kg p.o.): 30%
teratogenic effect (foetuses; rat): teratogenic

— patent EP1095021B1, “QUINOLINE DERIVATIVES” (Active Biotech AB, priority 1998, dated 2000)
